Earlier results in US4178376A, “Method for inducing rapid therapeutically effective antimalarial levels of certain selected conventional antimalarials” (Interx Research Corporation, priority 1977, dated 1979).

Settings: water

| aqueous solubility | SMILES |
| --- | --- |
| approximately 7.0 mg per liter of water | CCCCN(CCCC)CCC(O)c1cc(-c2ccc(C(F)(F)F)cc2)nc(-c2ccc(C(F)(F)F)cc2)c1 (centres unmarked) [3-Dibutylamino-1-[2,6-bis(4-trifluoromethylphenyl)-4-pyridyl] propanol] |
| approximately 1.0 mg per liter of water | CCCCN(CCCC)CC(O)c1cc(-c2ccc(Cl)c(Cl)c2)nc2c(Cl)cc(Cl)cc12 (centres unmarked) [Compound I] |
